Source: patent US8455649B2, “Insecticidal substituted azinyl derivatives” (Dow AgroSciences, LLC, priority 2007, dated 2013)

Legend:
[1] = test system: Corn Earworm (Helicoverpa zea); assay: Insecticidal diet-surface test for corn earworm; assay type: in vivo; conditions: 120 h, second-instar larvae on treated diet, 50 μg/cm^2 on diet surface, 5 days after treatment, 8 insects per treatment, read-out: HELIZE AVG % Mortality (50 μg/cm^2)
Method: (§1) The compounds identified in Table 1 were tested against beet armyworm and corn earworm as follows:
(§2) Insecticidal Test for Corn Earworm (Helicoverpa zea) and Beet Armyworm (Spodoptera exigua).
(§3) To prepare test solution, the test compound was formulated at 2000 ppm solution as 4 mg/2 mL of 9 acetone:1 tap water. 50 μL of the 2000 ppm (equivalent to 50 μg/cm^2 dose on diet surface area) test solution was pipetted upon the surface of 1 mL of lepidopteran diet (Southland Multi-Species Lepidopteran Diet) contained in each of eight wells per insect species (one well=1 replication). A second-instar corn earworm and beet armyworm was placed upon the treated diet in each well once the solvent had air-dried. Trays containing the treated diet and larvae were covered and then held in a growth chamber at 25° C., 50-55% RH, and 16 hr light:8 hr dark for 5 days. Observation were conducted 5 days after treatment and infestation. The number of dead insects of 8 per species per treatment was then determined and the results are given in Table 2 as a percent control at a dose of […].

[2] = test system: Beet Armyworm (Spodoptera exigua); assay: Insecticidal diet-surface test for beet armyworm; assay type: in vivo; conditions: 120 h, second-instar larvae on treated diet, 50 μg/cm^2 on diet surface, 5 days after treatment, 8 insects per treatment, read-out: LAPHEG AVG % Mortality (50 μg/cm^2)
Method: as §1, §2, §3

| Structure (SMILES) | mortality at 50 µg/cm2 [1] [%] | mortality at 50 µg/cm2 [2] [%] |
| --- | --- | --- |
| CN(C(=O)Nc1cc(OCC(F)(F)F)nc(OCC(F)(F)F)n1)c1ccc(Cl)nc1 [Compound 110] | 0 | 100 |
| O=C(Nc1ccc(Br)cc1)Nc1cc(C(F)(F)F)cc(OCC(F)(F)F)n1 [Compound 166] | 100 | 100 |
| CN(C(=O)Nc1nc(OCC(F)(F)F)cc(OCC(F)(F)F)n1)c1ccc(C(F)(F)C(F)(F)F)cc1 [Compound 152] | 100 | 100 |
| CN(C(=O)Nc1nc(OCC(F)(F)F)cc(OCC(F)(F)F)n1)c1ccc(SC(F)(F)F)cc1 [Compound 80] | 100 | 100 |
| COCCOCN(C(=O)Nc1nc(OCC(F)(F)F)cc(OCC(F)(F)F)n1)c1ccc(C(F)(F)F)cc1 [Compound 62] | 100 | 100 |
| N#Cc1ccc(NC(=O)Nc2nc(OCC(F)(F)F)cc(OCC(F)(F)F)n2)nc1 [Compound 127] | 100 | 0 |
| CC(C)(C)COCN(C(=O)Nc1nc(OCC(F)(F)F)cc(OCC(F)(F)F)n1)c1ccc(C(F)(F)F)cc1 [Compound 61] | 100 | 100 |
| COC(=O)c1ccc(N(C)C(=O)Nc2nc(OCC(F)(F)F)cc(OCC(F)(F)F)n2)cc1 [Compound 82] | 0 | 100 |
| CN(C(=O)Nc1nc(OCC(F)(F)F)cc(OCC(F)(F)F)n1)c1ccc(C(F)(F)F)nc1 [Compound 47] | 100 | 100 |
| CC(Oc1ccc(NC(=O)Nc2nc(OCC(F)(F)F)cc(OCC(F)(F)F)n2)cc1)C(F)(F)F (stereo not shown) [Compound 17] | 0 | 100 |
| CN(C(=O)Nc1nc(OCC(F)(F)C(F)(F)F)cc(OCC(F)(F)C(F)(F)F)n1)c1ccc(C(F)(F)F)cc1 [Compound 176] | 100 | 100 |
| CN(C(=O)Nc1nc(OCC(F)(F)F)cc(OCC(F)(F)F)n1)c1ccc(OC(F)(F)C(F)F)cc1 [Compound 29] | 100 | 100 |
| CCOCN(C(=O)N(COCc1ccccc1)c1nc(OCC(F)(F)F)cc(OCC(F)(F)F)n1)c1ccc(C(F)(F)F)nc1 [Compound 88] | 100 | 100 |
| CN(C(=O)Nc1cc(OCC(F)(F)F)nc(OCC(F)(F)F)n1)c1ccc(C(F)(F)F)nc1 [Compound 113] | 0 | 100 |
| O=C(Nc1nc(OCC(F)(F)F)cc(OCC(F)(F)F)n1)N(CCF)c1ccc(OC(F)(F)F)cc1 [Compound 95] | 100 | 100 |
| O=C(Nc1ccc(I)cc1)Nc1nc(OCC(F)(F)F)cc(OCC(F)(F)F)n1 [Compound 54] | 100 | 100 |
| CN(C(=O)Nc1nc(OCC(F)(F)F)cc(OCC(F)(F)F)n1)c1ccc(C(F)(F)F)cc1F [Compound 161] | 100 | 100 |
| O=C(Nc1ccc(Br)cc1)Nc1nc(OCC(F)(F)F)nc(OCC(F)(F)F)n1 [Compound 117] | 0 | 100 |
| CN(C(=O)Nc1nc(OCC(F)(F)F)cc(OCC(F)(F)F)n1)c1ccc(C(F)(F)F)c(Cl)c1 [Compound 153] | 100 | 100 |
| O=C(Nc1ccc(C(F)(F)F)nc1)Nc1nc(OCC(F)(F)F)cc(OCC(F)(F)F)n1 [Compound 24] | 100 | 100 |
| O=C(Nc1ccc(C(F)(F)F)cc1)Nc1nc(OCC(F)(F)F)c(Cl)c(OCC(F)(F)F)n1 [Compound 145] | 0 | 100 |
| CC(C)OCN(C(=O)Nc1nc(OCC(F)(F)F)cc(OCC(F)(F)F)n1)c1ccc(C(F)(F)F)cc1 [Compound 53] | 100 | 100 |
| FC(F)(F)COc1cc(OCC(F)(F)F)nc(NC(=S)Nc2ccc(Br)cc2)n1 [Compound 129] | 100 | 100 |
| Cc1cc(Br)ccc1N(C)C(=O)Nc1nc(OCC(F)(F)F)cc(OCC(F)(F)F)n1 [Compound 158] | 100 | 100 |
| CN(C(=O)Nc1nc(OCC(F)(F)F)cc(OCC(F)(F)F)n1)c1ccc(Cl)cn1 [Compound 124] | 100 | 100 |

| Structure (SMILES) | mortality at 50 µg/cm2 [1] [%] | mortality at 50 µg/cm2 [2] [%] |
| --- | --- | --- |
| CN(C(=O)Nc1nc(OCC(F)(F)F)nc(OCC(F)(F)F)n1)c1ccc(Cl)cc1 [Compound 121, N′-[4,6-bis(2,2,2-trifluoroethoxy)-1,3,5-triazin-2-yl]-N-(4-chlorophenyl)-N-methylurea] | 100 | 100 |
| O=C(Nc1nc(OCC(F)(F)F)cc(OCC(F)(F)F)n1)Nc1c(Cl)cc(OC(F)(F)F)cc1Cl [Compound 178] | 100 | 100 |
| Cc1c(OCC(F)(F)F)nc(NC(=O)N(C)c2ccc(OC(F)(F)F)cc2)nc1OCC(F)(F)F [Compound 142] | 100 | 100 |
| CN(C(=O)Nc1cc(OCC(F)(F)F)nc(OCC(F)(F)F)n1)c1ccc([N+](=O)[O-])cc1 [Compound 111] | 88 | 100 |
| CN(C(=O)Nc1cc(C(F)(F)F)cc(OCC(F)(F)F)n1)c1ccc(Br)cc1 [Compound 167] | 100 | 50 |
| O=C(Nc1ccc(Br)cc1)N(COCc1ccccc1)c1nc(OCC(F)(F)F)cc(OCC(F)(F)F)n1 [Compound 63] | 100 | 100 |
| CN(C(=O)Nc1nc(OCC(F)(F)F)cc(OCC(F)(F)F)n1)c1ccc(C(F)(F)F)cc1Cl [Compound 160] | 100 | 100 |
| CN(C(=O)Nc1nc(OCC(F)(F)F)cc(OCC(F)(F)F)n1)c1ccc(Cl)nc1 [Compound 48] | 100 | 100 |
| O=C(Nc1ccc(Cl)c(Cl)c1)Nc1nc(OCC(F)(F)F)cc(OCC(F)(F)F)n1 [Compound 5] | 50 | 25 |
| CN(C(=O)Nc1nc(OCC(F)(F)F)cc(OCC(F)(F)F)n1)c1ccc(OC(F)(F)F)cc1 [Compound 7, N′-[4,6-bis(2,2,2-trifluoroethoxy)pyrimidin-2-yl]-N-methyl-N-[4-(trifluoromethoxy)phenyl]urea] | 100 | 100 |
| O=C(O)CN(C(=O)Nc1nc(OCC(F)(F)F)cc(OCC(F)(F)F)n1)c1ccc(OC(F)(F)F)cc1 [Compound 32] | 100 | 100 |
| CCOCN(C(=O)Nc1nc(OCC(F)(F)F)cc(OCC(F)(F)F)n1)c1ccc(C(F)(F)F)nc1 [Compound 90] | 100 | 100 |
| O=C(Nc1ccc(SC(F)(F)F)cc1)Nc1nc(OCC(F)(F)F)cc(OCC(F)(F)F)n1 [Compound 58] | 100 | 100 |
| CN(C(=O)Nc1cc(OCC(F)(F)F)nc(OCC(F)(F)F)n1)c1ccc(Br)nc1 [Compound 109] | 25 | 88 |
| O=C(Nc1ccc(C(F)(F)F)cc1)Nc1cc(C(F)(F)F)cc(OCC(F)(F)F)n1 [Compound 164] | 100 | 88 |
| O=C(Nc1nc(OCC(F)(F)F)cc(OCC(F)(F)F)n1)N(c1ccc(C(F)(F)F)cc1)C1CC1 [Compound 156] | 100 | 100 |
| CN(C(=O)Nc1nc(OCC(F)(F)F)nc(OCC(F)(F)F)n1)c1ccc(OC(F)(F)C(F)F)cc1 [Compound 120] | 100 | 100 |
| O=C(Nc1ccc(OC(F)(F)F)cc1)Nc1nc(OCC(F)(F)C(F)(F)F)cc(OCC(F)(F)C(F)(F)F)n1 [Compound 104] | 100 | 0 |
| O=C(Nc1ccc(C(F)(F)F)cc1)Nc1nc(NCC(F)(F)F)cc(OCC(F)(F)F)n1 [Compound 99] | 100 | 100 |
| CN(C(=O)Nc1nc(OCC(F)(F)F)cc(OCC(F)(F)F)c1F)c1ccc(Br)cc1 [Compound 183, N′-[3-fluoro-4,6-bis(2,2,2-trifluoroethoxy)pyridin-2-yl]-N-methyl-N-(4-bromophenyl)urea] | 50 | 100 |
| CN(C(=O)Nc1nc(OCC(F)(F)F)cc(OCC(F)(F)F)n1)c1ccc(OCC(F)F)cc1 [Compound 71] | 100 | 100 |
| CC(C)(C)COCN(C(=O)N(COCc1ccccc1)c1nc(OCC(F)(F)F)cc(OCC(F)(F)F)n1)c1ccc(C(F)(F)F)cc1 [Compound 51] | 0 | 100 |
| CCOc1cc(OCC(F)(F)F)nc(NC(=O)Nc2ccc(C(F)(F)F)cc2)n1 [Compound 100] | 100 | 100 |
| O=C(Nc1ccc(C(F)(F)F)cc1)Nc1nc(OCC(F)(F)F)nc(OCC(F)(F)F)n1 [Compound 116] | 0 | 100 |
| COCN(C(=O)Nc1nc(OCC(F)(F)F)cc(OCC(F)(F)F)n1)c1ccc(OC(F)(F)F)cc1 [Compound 45] | 100 | 100 |
